Test results reported in US11497212B2, “Substituted thiophenyl uracils, salts thereof and the use thereof as herbicidal agents” (Syngenta Crop Protection AG, priority 2017, dated 2022).

Key:
Assay type in all cases: in vivo
Glycine max = assay: Crop compatibility post-emergence (greenhouse pot trial); settings: application rate 20 g/ha
In short: (§1)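 Crops grown in sandy loam in greenhouse, sprayed at one-leaf stage (2–3 weeks after sowing) with WP or EC formulations in water plus 0.5% additive, 600 L/ha. Damage scored visually after about 3 weeks versus untreated controls, 0% = like control, 100% = dead.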

Oryza sativa = assay: as above; settings: application rate 20 g/ha
In short: as §1

Zea mays [1] = assay: as above
In short: as §1

Triticum aestivum = assay: as above
In short: as §1

Amaranthus retroflexus [2] = assay: Herbicidal action post-emergence (greenhouse pot trial); settings: scored visually after about 3 weeks vs untreated controls
In short: (§2)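 Foliar application post-emergence; water volume 600 L/ha, additive 0.5%, dose ≤80 g/ha. Scoring: visual, ~3 wk, relative to untreated (0–100%).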

Pharbitis purpurea [3] = assay: as above
In short: as §2

Abutilon theophrasti [4] = assay: as above; settings: scored visually after about 3 weeks vs untreated controls
In short: as §2

Viola tricolor [5] = assay: as above
In short: as §2

Veronica persica [6] = assay: as above
In short: as §2

Lolium rigidum = assay: Herbicidal action pre-emergence (greenhouse pot trial); settings: application rate 320 g/ha
Source text: (§3) Seeds of mono- and dicotyledonous weeds and crop plants were laid out in plastic or organic plant pots and covered with soil. The compounds of the invention formulated in the form of wettable powders (WP) or emulsion concentrates (EC) were then applied to the surface of the covering soil as an aqueous suspension or emulsion with addition of 0.5% additive at a water application rate equivalent to 600 L/ha. After the treatment, the pots were placed in a greenhouse and kept under good growth conditions for the test plants. After about 3 weeks, the efficacy of the preparations was scored visually as a percentage by comparison with untreated controls. For example, 100% efficacy=plants have died, 0% efficacy=like control plants. Tables B1 to B16 below show the efficacies of selected compounds of the general formula (I) according to tables I.1 to I.60 on various harmful plants and an application rate corresponding to 320 g/ha or lower that were obtained by the aforementioned trial method.

Amaranthus retroflexus [7] = assay: as above; settings: application rate 320 g/ha, scored after about 3 weeks
Source text: as §3

Matricaria inodora [8] = assay: as above; settings: application rate 320 g/ha, scored after about 3 weeks
Source text: as §3

Pharbitis purpurea [9] = assay: as above; settings: application rate 320 g/ha
Source text: as §3

Abutilon theophrasti [10] = assay: as above; settings: application rate 320 g/ha, scored after about 3 weeks
Source text: as §3

Hordeum murinum = assay: as above; settings: application rate 320 g/ha
Source text: as §3

Avena fatua = assay: as above; settings: application rate 320 g/ha
Source text: as §3

Echinochloa crus-galli = assay: as above; settings: application rate 320 g/ha, scored after about 3 weeks
Source text: as §3

Stellaria media [11] = assay: as above; settings: application rate 320 g/ha, scored after about 3 weeks
Source text: as §3

Viola tricolor [12] = assay: as above; settings: application rate 320 g/ha, scored after about 3 weeks
Source text: as §3

Alopecurus myosuroides = assay: as above; settings: application rate 320 g/ha, scored after about 3 weeks
Source text: as §3

Veronica persica [13] = assay: as above; settings: application rate 320 g/ha
Source text: as §3

Setaria viridis [14] = assay: as above; settings: application rate 320 g/ha, scored after about 3 weeks
Source text: as §3

Zea mays [15] = assay: Crop compatibility pre-emergence (greenhouse pot trial); settings: application rate 20 g/ha, effect vs untreated controls
Source text: as §3, with “plants.” for “plants. Tables B1 to B16 below show the efficacies of selected compounds of the general formula (I) according to tables I.1 to I.60 on various harmful plants and an application rate corresponding to 320 g/ha or lower that were obtained by the aforementioned trial method.”
Crop compatibilities were also scored correspondingly.
The effects observed are reported here on selected crop plants by comparison with the untreated controls (values in %).

Matricaria inodora [16] = assay: Herbicidal action post-emergence (greenhouse pot trial); settings: scored visually after about 3 weeks vs untreated controls
In short: as §2

Polygonum convolvulus = assay: as above; settings: scored visually after about 3 weeks vs untreated controls
In short: as §2

Stellaria media [17] = assay: as above; settings: application rate 80 g/ha, scored visually after about 3 weeks vs untreated controls
In short: as §2

Setaria viridis [18] = assay: as above; settings: scored visually after about 3 weeks vs untreated controls
In short: as §2

Question: Cc1c(C(F)(F)F)n(C)c(=O)n(-c2cc(SC(CC(C)C)C(=O)OCC3CCCCO3)c(Cl)cc2F)c1=O (stereo not shown) [I.14-91] was tested. Which “Glycine max (Efficacy in %)” value (Glycine max) did it give?
Answer: The value was 20%.

Question: And the “Oryza sativa (Efficacy in %)” value (Oryza sativa)?
Answer: Its value is 0%.

Question: And the “Zea mays (Efficacy in %)” value (Zea mays [1]; application rate 20 g/ha)?
Answer: The value was 20%.

Question: And the “Triticum aestivum (Efficacy in %)” value (Triticum aestivum; application rate 20 g/ha)?
Answer: The value was 20%.

Question: What about the “Amaranthus retroflexus (Efficacy in %)” value (Amaranthus retroflexus [2]; application rate 20 g/ha) of the same molecule?
Answer: The value was 100%.

Question: And the “Pharbitis purpurea (Efficacy in %)” value (Pharbitis purpurea [3]; application rate 20 g/ha)?
Answer: Its value is 80%.

Question: And the “Abutilon theophrasti (Efficacy in %)” value (Abutilon theophrasti [4]; application rate 20 g/ha)?
Answer: The value was 100%.

Question: And the “Viola tricolor (Efficacy in %)” value (Viola tricolor [5]; application rate 20 g/ha)?
Answer: Its value is 100%.

Question: And the “Veronica persica (Efficacy in %)” value (Veronica persica [6]; application rate 20 g/ha)?
Answer: Its value is 100%.

Question: With C=CCN(C(=O)C(C)Sc1cc(-n2c(=O)cc(C(F)(F)F)n(C)c2=O)c(F)cc1Cl)C(C)COC (stereo not shown) [I.1-335] as the molecule, how does the “Oryza sativa (Efficacy in %)” value (Oryza sativa) read?
Answer: The value was 10%.

Question: What about the “Zea mays (Efficacy in %)” value (Zea mays [1]; application rate 80 g/ha) of the same molecule?
Answer: The value was 10%.

Question: What about the “Triticum aestivum (Efficacy in %)” value (Triticum aestivum; application rate 80 g/ha) of the same molecule?
Answer: The value was 20%.

Question: What about the “Lolium rigidum (Efficacy in %)” value (Lolium rigidum) of the same molecule?
Answer: The value was 100%.

Question: And the “Amaranthus retroflexus (Efficacy in %)” value (Amaranthus retroflexus [7])?
Answer: Its value is 100%.

Question: And the “Matricaria inodora (Efficacy in %)” value (Matricaria inodora [8])?
Answer: Its value is 100%.

Question: And the “Pharbitis purpurea (Efficacy in %)” value (Pharbitis purpurea [9])?
Answer: The value was 100%.

Question: And the “Abutilon theophrasti (Efficacy in %)” value (Abutilon theophrasti [10])?
Answer: The value was 100%.

Question: What about the “Hordeum murinum (Efficacy in %)” value (Hordeum murinum) of the same molecule?
Answer: Its value is 90%.

Question: What about the “Avena fatua (Efficacy in %)” value (Avena fatua) of the same molecule?
Answer: The value was 100%.

Question: And the “Echinochloa crus-galli (Efficacy in %)” value (Echinochloa crus-galli)?
Answer: Its value is 100%.

Question: What about the “Stellaria media (Efficacy in %)” value (Stellaria media [11]) of the same molecule?
Answer: The value was 100%.

Question: What about the “Viola tricolor (Efficacy in %)” value (Viola tricolor [12]) of the same molecule?
Answer: Its value is 100%.

Question: And the “Alopecurus myosuroides (Efficacy in %)” value (Alopecurus myosuroides)?
Answer: The value was 90%.

Question: And the “Veronica persica (Efficacy in %)” value (Veronica persica [13])?
Answer: The value was 100%.

Question: What about the “Setaria viridis (Efficacy in %)” value (Setaria viridis [14]) of the same molecule?
Answer: Its value is 100%.

Question: What about the “Zea mays (Efficacy in %)” value (Zea mays [15]) of the same molecule?
Answer: Its value is 20%.

Question: And the “Amaranthus retroflexus (Efficacy in %)” value (Amaranthus retroflexus [2]; application rate 80 g/ha)?
Answer: Its value is 100%.

Question: And the “Matricaria inodora (Efficacy in %)” value (Matricaria inodora [16]; application rate 80 g/ha)?
Answer: Its value is 100%.

Question: And the “Pharbitis purpurea (Efficacy in %)” value (Pharbitis purpurea [3]; application rate 80 g/ha)?
Answer: The value was 100%.

Question: What about the “Abutilon theophrasti (Efficacy in %)” value (Abutilon theophrasti [4]; application rate 80 g/ha) of the same molecule?
Answer: Its value is 100%.

Question: And the “Polygonum convolvulus (Efficacy in %)” value (Polygonum convolvulus; application rate 80 g/ha)?
Answer: The value was 100%.

Question: And the “Stellaria media (Efficacy in %)” value (Stellaria media [17])?
Answer: Its value is 100%.

Question: What about the “Viola tricolor (Efficacy in %)” value (Viola tricolor [5]; application rate 80 g/ha) of the same molecule?
Answer: The value was 100%.

Question: And the “Veronica persica (Efficacy in %)” value (Veronica persica [6]; application rate 80 g/ha)?
Answer: The value was 100%.

Question: And the “Setaria viridis (Efficacy in %)” value (Setaria viridis [18]; application rate 80 g/ha)?
Answer: The value was 100%.

Question: Cc1c(C(F)(F)F)n(C)c(=O)n(-c2cc(SC(CC(C)C)C(=O)OCC3CCOC3)c(Cl)cc2F)c1=O (stereo not shown) [I.14-72] was tested. Which “Glycine max (Efficacy in %)” value (Glycine max) did it give?
Answer: Its value is 20%.

Question: And the “Oryza sativa (Efficacy in %)” value (Oryza sativa)?
Answer: The value was 0%.

Question: What about the “Triticum aestivum (Efficacy in %)” value (Triticum aestivum; application rate 20 g/ha) of the same molecule?
Answer: The value was 20%.

Question: And the “Amaranthus retroflexus (Efficacy in %)” value (Amaranthus retroflexus [2]; application rate 20 g/ha)?
Answer: The value was 100%.

Question: What about the “Matricaria inodora (Efficacy in %)” value (Matricaria inodora [16]; application rate 20 g/ha) of the same molecule?
Answer: Its value is 80%.

Question: And the “Pharbitis purpurea (Efficacy in %)” value (Pharbitis purpurea [3]; application rate 20 g/ha)?
Answer: Its value is 80%.

Question: And the “Abutilon theophrasti (Efficacy in %)” value (Abutilon theophrasti [4]; application rate 20 g/ha)?
Answer: The value was 80%.

Question: And the “Polygonum convolvulus (Efficacy in %)” value (Polygonum convolvulus; application rate 20 g/ha)?
Answer: Its value is 80%.

Question: What about the “Viola tricolor (Efficacy in %)” value (Viola tricolor [5]; application rate 20 g/ha) of the same molecule?
Answer: Its value is 100%.

Question: What about the “Veronica persica (Efficacy in %)” value (Veronica persica [6]; application rate 20 g/ha) of the same molecule?
Answer: The value was 100%.

Question: What about the “Setaria viridis (Efficacy in %)” value (Setaria viridis [18]; application rate 20 g/ha) of the same molecule?
Answer: Its value is 100%.
